Where “and” joins values, the source holds several entries; their conditions need not be identical. Equal values may be shown once. Toxic doses and inconclusive results are not listed. Rule as the data show it: active = T/C of 150% or more; inactive = T/C below 125%.
System: L1210 leukemia ip in BDF1 mice, survival T/C
Assay: NCI In Vivo Anticancer Drug Screen. Data for tumor model L1210 Leukemia (intraperitoneal) in B6D2F1 (BDF1) mice
Conditions: endpoint: mean survival time, higher = longer survival
How it was run: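 Mice bearing the transplanted tumor received compound or vehicle. Survival of the treated group was divided by that of the vehicle-treated control group to give the ratio.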

[1] = dose: 100.0 mg/kg/injection, schedule: Q01DX001 (ip), vehicle: Klucel (hydroxypropylcellulose) (HPC)
[2] = dose: 100.0 mg/kg/injection, schedule: Q04DX003 (ip), vehicle: Klucel (hydroxypropylcellulose) (HPC)
[3] = dose: 200.0 mg/kg/injection, schedule: Q01DX001 (ip), vehicle: Klucel (hydroxypropylcellulose) (HPC)
[4] = dose: 200.0 mg/kg/injection, schedule: Q04DX003 (ip), vehicle: Klucel (hydroxypropylcellulose) (HPC)
[5] = dose: 400.0 mg/kg/injection, schedule: Q01DX001 (ip), vehicle: Klucel (hydroxypropylcellulose) (HPC)
[6] = dose: 400.0 mg/kg/injection, schedule: Q04DX003 (ip), vehicle: Klucel (hydroxypropylcellulose) (HPC)
[7] = dose: 100.0 mg/kg/injection, schedule: Q01DX009 (ip), vehicle: Klucel (hydroxypropylcellulose) (HPC)
[8] = dose: 200.0 mg/kg/injection, schedule: Q01DX009 (ip), vehicle: Klucel (hydroxypropylcellulose) (HPC)
[9] = dose: 400.0 mg/kg/injection, schedule: Q01DX009 (ip), vehicle: Klucel (hydroxypropylcellulose) (HPC)
[10] = dose: 50.0 mg/kg/injection, schedule: Q01DX001 (ip), vehicle: carboxymethylcellulose (CMC)
[11] = dose: 100.0 mg/kg/injection, schedule: Q01DX001 (ip), vehicle: carboxymethylcellulose (CMC)
[12] = dose: 200.0 mg/kg/injection, schedule: Q01DX001 (ip), vehicle: carboxymethylcellulose (CMC)
[13] = dose: 400.0 mg/kg/injection, schedule: Q01DX001 (ip), vehicle: carboxymethylcellulose (CMC)
[14] = dose: 100.0 mg/kg/injection, schedule: Q04DX002 (ip), vehicle: Klucel (hydroxypropylcellulose) (HPC)
[15] = dose: 200.0 mg/kg/injection, schedule: Q04DX002 (ip), vehicle: Klucel (hydroxypropylcellulose) (HPC)
[16] = dose: 100.0 mg/kg/injection, schedule: Q01DX001 (ip), vehicle: saline
[17] = dose: 100.0 mg/kg/injection, schedule: Q04DX003 (ip), vehicle: acetone
[18] = dose: 200.0 mg/kg/injection, schedule: Q01DX001 (ip), vehicle: saline
[19] = dose: 200.0 mg/kg/injection, schedule: Q04DX003 (ip), vehicle: acetone
[20] = dose: 400.0 mg/kg/injection, schedule: Q01DX001 (ip), vehicle: saline
[21] = dose: 400.0 mg/kg/injection, schedule: Q04DX003 (ip), vehicle: acetone
[22] = dose: 400.0 mg/kg/injection, schedule: Q04DX002 (ip), vehicle: Klucel (hydroxypropylcellulose) (HPC)

Measured: T/C

O=C1/C(=C\c2ccccc2)C(Br)c2ccccc21 (centres undefined)
inactive: dose: 12.5 mg/kg/injection, schedule: Q01DX009 (ip), vehicle: water 95 % of control | dose: 12.5 mg/kg/injection, schedule: Q04DX003 (ip), vehicle: water 100 % of control | dose: 25.0 mg/kg/injection, schedule: Q01DX009 (ip), vehicle: water 97 % of control | dose: 25.0 mg/kg/injection, schedule: Q04DX003 (ip), vehicle: water 91 % of control | dose: 50.0 mg/kg/injection, schedule: Q01DX009 (ip), vehicle: water 100 % of control | dose: 50.0 mg/kg/injection, schedule: Q04DX003 (ip), vehicle: water 92 % of control

Nc1nccc2snnc12
inactive: [1] 91 % of control | [2] 94 % of control | [3] 89 % of control | [4] 104 % of control | [5] 97 % of control | [6] 100 % of control

O=C(CBr)c1ccc(S(=O)(=O)c2ccccc2)cc1
inactive: dose: 5.0 mg/kg/injection, schedule: Q01DX001 (ip), vehicle: carboxymethylcellulose (CMC) 93 % of control | dose: 10.0 mg/kg/injection, schedule: Q01DX001 (ip), vehicle: carboxymethylcellulose (CMC) 93 % of control | dose: 20.0 mg/kg/injection, schedule: Q01DX001 (ip), vehicle: carboxymethylcellulose (CMC) 95 % of control

COC(=O)c1cc(NC(=O)Nc2cccc(C(C)=O)c2)cc(C(=O)OC)c1
inactive: [7] 98 % of control | [8] 102 % of control | [9] 93 % of control

C=CCNC(=S)Nc1cccc(Cl)c1C
inactive: dose: 12.5 mg/kg/injection, schedule: Q01DX009 (ip), vehicle: Klucel (hydroxypropylcellulose) (HPC) 87 % of control | dose: 25.0 mg/kg/injection, schedule: Q01DX009 (ip), vehicle: Klucel (hydroxypropylcellulose) (HPC) 101 % of control | dose: 50.0 mg/kg/injection, schedule: Q01DX009 (ip), vehicle: Klucel (hydroxypropylcellulose) (HPC) 96 % of control | [2] 90 % of control | [4] 100 % of control | [6] 94 % of control

CC(=O)NCCOc1ccc([N+](=O)[O-])cc1
inactive: [1] 102 % of control | [3] 102 % of control | [5] 102 % of control

C(/CCc1ccccc1)=N\Nc1nnc(N/N=C/CCc2ccccc2)c2ccccc12
inactive: [10] 102 % of control | [11] 105 % of control | [12] 102 % of control

O=[N+]([O-])c1cc(Br)cc2c1nc(Cl)c1ccccc12
inactive: [2] 98 % of control | [4] 101 % of control | [6] 98 % of control

CC(C)=CCC/C(C)=C/C#N
inactive: [11] 100 % of control | [12] 111 % of control | [13] 94 % of control

c1cc2c(c3c1CCCC3)CCC1CCCCC21 (centres undefined)
inactive: [11] 103 % of control | [12] 95 % of control | [13] 97 % of control

Cc1ccc(NC(=S)NNC(=S)NNc2ccccc2)cc1
inactive: [14] 86 % of control | [15] 94 % of control

O=C1c2cc(Br)ccc2-c2c(F)cc(Br)cc21
inactive: [10] 105 % of control | [11] 100 % of control | [12] 100 % of control | [13] 94 % of control

Nc1c(Cl)[nH]cnc1=S
inactive: dose: 224.0 mg/kg/injection, schedule: Q01DX Z (ip), vehicle: methylcellulose (MC) 98 % of control | dose: 334.0 mg/kg/injection, schedule: Q01DX Z (ip), vehicle: methylcellulose (MC) 94 % of control | dose: 500.0 mg/kg/injection, schedule: Q01DX Z (ip), vehicle: methylcellulose (MC) 94 % of control | dose: 750.0 mg/kg/injection, schedule: Q01DX Z (ip), vehicle: methylcellulose (MC) 94 % of control

COC(=O)c1cscc1C=O
inactive: [16] 100 % of control | [17] 102 % of control | dose: 100.0 mg/kg/injection, schedule: Q04DX003 (ip), vehicle: saline 100 % of control | [18] 104 % of control | [19] 95 % of control | dose: 200.0 mg/kg/injection, schedule: Q04DX003 (ip), vehicle: saline 94 % of control | [20] 93 % of control | [21] 93 % of control | dose: 400.0 mg/kg/injection, schedule: Q04DX003 (ip), vehicle: saline 93 % of control

CC1CC(C)(C)OC(C(Cl)(Cl)Cl)O1 (centres undefined)
inactive: dose: 50.0 mg/kg/injection, schedule: Q01DX009 (ip), vehicle: saline 98 % of control | dose: 100.0 mg/kg/injection, schedule: Q01DX009 (ip), vehicle: saline 93 % of control | [17] 112 % of control | dose: 200.0 mg/kg/injection, schedule: Q01DX009 (ip), vehicle: saline 93 % of control | [19] 106 % of control | [21] 103 % of control

Oc1ccc(-c2nnc(-c3ccc(O)cc3)nn2)cc1
inactive: [14] 91 % of control | [15] 94 % of control | [22] 102 % of control

CC(C)CCCC(C)C1CCC2C3CCC4CC(O)CCC4(C)C3CCC12C (centres undefined)
inactive: dose: 100.0 mg/kg/injection, schedule: Q01DX001 (sc), vehicle: steriod suspending solution 109 % of control | dose: 200.0 mg/kg/injection, schedule: Q01DX001 (sc), vehicle: steriod suspending solution 109 % of control | dose: 400.0 mg/kg/injection, schedule: Q01DX001 (sc), vehicle: steriod suspending solution 100 % of control

COC(C#N)C(O)(c1ccccc1)c1ccccc1 (centres undefined)
inactive: dose: 75.0 mg/kg/injection, schedule: Q01DX001 (ip), vehicle: other 94 % of control | dose: 150.0 mg/kg/injection, schedule: Q01DX001 (ip), vehicle: other 100 % of control

C/C=C/CCCCC
inactive: dose: 50.0 mg/kg/injection, schedule: Q01DX009 (ip), vehicle: saline with Tween-80 102 % of control | dose: 100.0 mg/kg/injection, schedule: Q01DX009 (ip), vehicle: saline with Tween-80 118 % of control | dose: 200.0 mg/kg/injection, schedule: Q01DX009 (ip), vehicle: saline with Tween-80 94 % of control

COc1ccccc1NC(=O)Nc1ccc(Nc2ccccc2)cc1
inactive: [7] 101 % of control | [2] 103 % of control | [8] 104 % of control | [4] 91 % of control | [9] 104 % of control | [6] 97 % of control

ClC1C2CC3C1C3C2C(Cl)(Cl)Cl (centres undefined)
inactive: [14] 103 % of control | [15] 100 % of control | [22] 90 % of control

CC1CCCC1C(=Nc1ccc(Cl)c(Cl)c1)N1CCCCC1 (centres undefined)
inactive: [16] 105 % of control | [18] 100 % of control | [20] 102 % of control

CCCCCSc1cccc(N)c1
inactive: dose: 100.0 mg/kg/injection, schedule: Q01DX001 (ip), vehicle: saline with Tween-80 112 % of control | dose: 200.0 mg/kg/injection, schedule: Q01DX001 (ip), vehicle: saline with Tween-80 102 % of control | dose: 400.0 mg/kg/injection, schedule: Q01DX001 (ip), vehicle: saline with Tween-80 97 % of control

C[N+]1(CC(=O)c2ccc(CCc3ccc(C(=O)C[N+]4(C)CCCCC4)cc3)cc2)CCCCC1
inactive: dose: 0.78 mg/kg/injection, schedule: Q01DX009 (ip), vehicle: saline 117 % of control | dose: 0.78 mg/kg/injection, schedule: Q04DX002 (ip), vehicle: saline 101 % of control | dose: 1.56 mg/kg/injection, schedule: Q01DX009 (ip), vehicle: saline 106 % of control | dose: 1.56 mg/kg/injection, schedule: Q04DX002 (ip), vehicle: saline 95 % of control | dose: 3.12 mg/kg/injection, schedule: Q01DX009 (ip), vehicle: saline 92 % of control | dose: 3.12 mg/kg/injection, schedule: Q04DX002 (ip), vehicle: saline 98 % of control and 105 % of control

CC(=O)c1c(C)c([N+](=O)[O-])c(C(C)(C)C)c([N+](=O)[O-])c1C
inactive: [7] 100 % of control | [8] 97 % of control | [9] 96 % of control

Source: PubChem BioAssay AID248 (DTP/NCI, 2004)
